Assay results from patent publication US5437980A, “Phenanthridium dye staining of nucleic acids in living cells” (Molecular Probes, Inc., priority 1993, dated 1995).

Assays:
[1] = system: free-living ciliate and flagellate protozoans; assay: Staining of protozoa (Example 7); type: cell-based; details: 1 μL of 10 mM dye in 1 mL culture, 10 min, ambient temperature
Experimental: 1 μL of 10 mM the 5-DAPP/LIVE dye stock is added to 1 mL of protozoan culture. The medium is incubated for 10 min at ambient temperature. 15 μL of this preparation is mounted with dye between a coverglass and the slide. Using this procedure, the nuclei of most cells of the free-living ciliate and flagellate protozoans are stained under these conditions.

[2] = system: peripheral blood lymphocytes; assay: Staining of peripheral blood lymphocytes, fluorometer (Example 11); type: cell-based, goat; details: on the scale of seconds
Experimental: Peripheral blood lymphocytes (PBL) are isolated from fresh heparinized goat blood and resuspended in buffer consisting of 135 mM NaCl, 5 mM KCl, 20 mM HEPES, 1 mM CaCl2, 1 mM MgCl2, pH 7.4 (HBSS+). The cells are resuspended to 10^6 mL (as determined by direct microscopic count using a standard hemocytometer) in a final volume of 3 mL in the above buffer in a quartz cuvette. 5-DAPP/LIVE dye stocks are prepared to final concentrations of 2 mM in DMSO. 3 μL of the octidium dye stock solution is injected into the cuvette to a final concentration of 2 μM. In a fluorometer, the sample is excited at 520 nm and fluorescence emission is monitored at 600 nm over the time required for the fluorescence signal to become stable. Hexidium, butidium and ethidium bromide are injected into separate samples of PBL to determine the relative rates of uptake for these stains. The volume of dye solution added to the cuvette is corrected by a factor relating the absorbance of the dye to the absorbance of a 2 mM octidium solution.

[3] = system: living cells; assay: Entry into / staining of living cells, general; type: cell-based; details: general summary, several types of cells
[4] = system: epidermal tissue of the bulb, Alium spp.; assay: Staining of plant cell tissue (Example 6); type: cell-based; details: 10 μM dye, 30 min, room temperature
Experimental: A small section of tissue from the bulb is removed with a razor blade. 0.5 mL of a 10 μM solution of the 5-DAPP/LIVE dye in distilled water is dispensed into a small glass dish. The epidermal tissue is cut into sections and placed in the dye solution. The tissue is stained for 30 min at room temperature in the dark then the tissue preparation is mounted in the presence of the dye between a coverglass and the slide.

[5] = system: gram-positive bacteria; details: mild conditions; application Ser. No. 08/047,683; cited from earlier work
[6] = system: mushroom spores; assay: Staining of mushroom spores by fluorescence microscopy (Example 4); type: cell-based, agaric; details: 10-20 μM dye, 30 min, room temperature
Experimental: Spores are rinsed from the gills on the underside of the cap of an agaric using a stream of distilled water. The spores are concentrated by centrifugation for 30 sec at 10,000 rpm in a microcentrifuge then a minimal volume of a 10-20 μM solution of the 5-DAPP/LIVE dye in distilled water is added. The suspension is incubated with the dye for 30 min at room temperature then a 15 μL aliquot of the suspension is mounted on between a coverglass and the slide for viewing in the presence of the dye. The cellular fluorescence is observed on a Zeiss Axioplan fluorescence microscope using fluorescein (long:pass emission) or rhodamine filter sets.

[7] = system: trypanosome; details: Watkins, J. CHEM SOC. 3059 (1952); Watkins & Woolfe; cited from earlier work
[8] = system: gram-negative bacteria; details: mild conditions; application Ser. No. 08/047,683; cited from earlier work
[9] = system: Saccharomyces; assay: Staining of yeast (Example 5); type: cell-based; details: 10 μM dye, 30 min, 37° C.
Experimental: Yeast cells are washed by centrifugation and then resuspended in a solution of 2% glucose and 10 mM Na-HEPES, pH 7.4 to a cell density of between 5×10^5 and 2×10^6 cells/mL optical density at 410 nm (previously calibrated with YPD agar plate colony counts). Sufficient 10 mM stock solution of the 5-DAPP/LIVE dye in DMSO is added to effect a final concentration of 10 μM of the dye in the medium. The suspension is incubated for 30 min at 37° C. then 15 μL are placed between a coverglass and the microscope slide. The cellular fluorescence is observed using fluorescein (long-pass emission) or rhodamine filter sets.

[10] = system: Bacillus cereus; assay: Relative rate and extent of dye uptake into living Bacillus cereus (Example 2, FIG. 1); type: cell-based; details: 2 μM dye, 23° C., 488 nm excitation, 600 nm emission
Experimental: FIG. 1. Relative Uptake of Dyes into Living Cells. Uptake of ethidium, butidium, hexidium and octidium by Bacillus cereus as described in Example 2.
Bacillus cereus is grown in nutrient broth to log phase, washed by centrifugation, and resuspended in water to a density of 5×10^6 cfu/mL (as determined in Example 1). One centimeter pathlength acrylic cuvettes containing 3 mL of cell suspension are placed in a fluorescence spectrophotometer equipped with a temperature regulated cuvette holder and magnetic stirrer. The suspensions are brought to 23° C. prior to dye addition. To a cuvette of 3 mL bacteria suspension is added 3 μL of 2 mM dye stock solutions in DMSO to give a final dye concentration of 2 μM to produce the maximum attainable fluorescence/cell at the 600 nm emission wavelength (determined as in Example 1). The peak fluorescence excitation and emission wavelengths are determined by scanning the spectrum of the dye in suspensions of Bacillus cereus incubated for 30 min with the dye. Fluorescence intensity of the suspensions is measured using 488 nm excitation and 600 nm emission wavelengths. Sampling of fluorescence is carried out at 5 or 10 Hz until the fluorescence signal appears to stabilize.

[11] = system: living cells; details: intact cell membrane; background; cited from earlier work

CC[n+]1c(-c2ccccc2)c2cc(N)ccc2c2ccc(N)cc21 [ethidium, reference compound]
staining of nuclei of protozoans [1]: octidium which is better than butidium and ethidium | distribution of dye into nucleus of lymphocytes [2]: not ethidium | entry into / staining of live cells [3]: does not enter most live cells easily | cell wall / surface staining [4]: more hazy surface staining | staining of live gram-positive bacteria [5]: does not effectively stain | fraction of spores entered [6]: less than 10% | trypanocidal effectiveness / therapeutic potential [7]: superior to that of other 5-DAPP derivatives with longer alkyl chains | staining of live gram-negative bacteria [8]: does not effectively stain | staining distribution and intensity [9]: stains all yeast slightly with a pale red nucleus and hazy red cytoplasm | rate of dye loading [10]: increases with carbon chain length | suitability for staining of nucleic acids in living cells [11]: usually not suitable for staining of nucleic acids in living cells in which the cell membrane is intact
